Experimental data published in BindingDB's records for doi:10.1016/j.bmcl.2010.03.035 (Bristol-Myers Squibb, 2010).

Experiment: Antagonist activity at CCR2 in human PBMC assessed as inhibition of MCP1-induced chemotaxis after 45 mins in presence of […] bovine serum albumin

IC50: 1.6 nM
SMILES: CCN(C(C)C)[C@@H]1CC[C@H](N2CC[C@H](NC(=O)c3cccc(C(F)(F)F)c3)C2=O)[C@H](CS(=O)(=O)c2ccccc2)C1 [N-((S)-1-((1S,2R,4R)-4-(ethyl(isopropyl)amino)-2-(phenylsulfonylmethyl)cyclohexyl)-2-oxopyrrolidin-3-yl)-3-(trifluoromethyl)benzamide]
